Experimental data taken from ChEMBL document CHEMBL3714729, “Heterocyclic compounds for the inhibition of pask” (2012).

How the values were obtained:
[1] = target: T1, PAS domain-containing serine/threonine-protein kinase (Homo sapiens, UniProt Q96RG2); assay: Inhibition of human recombinant PASK using Ulight-peptide substrate incubated for 2 hrs by TR-FRET assay
[2] = target: T1, PAS domain-containing serine/threonine-protein kinase; assay: Inhibition of N-terminal GST-tagged human recombinant PASK kinase domain (879 to 1323 residues) expressed in insect cells using MBP protein substrate incubated for 120 mins in presence of [33P]ATP by scintillation counting based radiochemical assay
[3] = target: Casein kinase II subunit alpha' (Homo sapiens, UniProt P19784); assay: Inhibition of GST-tagged full-length purified human CK2a2 using RRRDDDSDDD substrate incubated for 120 mins in presence of [33P]ATP by scintillation counting based biochemical assay
Chain of Casein kinase II subunit alpha' (P19784 whole entry): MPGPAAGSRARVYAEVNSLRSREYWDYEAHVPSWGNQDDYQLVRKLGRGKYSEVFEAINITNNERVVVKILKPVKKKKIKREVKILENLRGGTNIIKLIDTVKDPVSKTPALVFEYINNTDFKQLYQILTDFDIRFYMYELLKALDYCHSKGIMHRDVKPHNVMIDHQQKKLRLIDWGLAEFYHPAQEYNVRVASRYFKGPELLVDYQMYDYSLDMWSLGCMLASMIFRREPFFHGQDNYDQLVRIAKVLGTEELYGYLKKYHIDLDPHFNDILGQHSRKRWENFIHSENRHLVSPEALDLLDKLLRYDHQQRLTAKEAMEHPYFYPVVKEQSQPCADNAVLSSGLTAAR

T1 sequence (Q96RG2 whole entry, the tested form may be a part): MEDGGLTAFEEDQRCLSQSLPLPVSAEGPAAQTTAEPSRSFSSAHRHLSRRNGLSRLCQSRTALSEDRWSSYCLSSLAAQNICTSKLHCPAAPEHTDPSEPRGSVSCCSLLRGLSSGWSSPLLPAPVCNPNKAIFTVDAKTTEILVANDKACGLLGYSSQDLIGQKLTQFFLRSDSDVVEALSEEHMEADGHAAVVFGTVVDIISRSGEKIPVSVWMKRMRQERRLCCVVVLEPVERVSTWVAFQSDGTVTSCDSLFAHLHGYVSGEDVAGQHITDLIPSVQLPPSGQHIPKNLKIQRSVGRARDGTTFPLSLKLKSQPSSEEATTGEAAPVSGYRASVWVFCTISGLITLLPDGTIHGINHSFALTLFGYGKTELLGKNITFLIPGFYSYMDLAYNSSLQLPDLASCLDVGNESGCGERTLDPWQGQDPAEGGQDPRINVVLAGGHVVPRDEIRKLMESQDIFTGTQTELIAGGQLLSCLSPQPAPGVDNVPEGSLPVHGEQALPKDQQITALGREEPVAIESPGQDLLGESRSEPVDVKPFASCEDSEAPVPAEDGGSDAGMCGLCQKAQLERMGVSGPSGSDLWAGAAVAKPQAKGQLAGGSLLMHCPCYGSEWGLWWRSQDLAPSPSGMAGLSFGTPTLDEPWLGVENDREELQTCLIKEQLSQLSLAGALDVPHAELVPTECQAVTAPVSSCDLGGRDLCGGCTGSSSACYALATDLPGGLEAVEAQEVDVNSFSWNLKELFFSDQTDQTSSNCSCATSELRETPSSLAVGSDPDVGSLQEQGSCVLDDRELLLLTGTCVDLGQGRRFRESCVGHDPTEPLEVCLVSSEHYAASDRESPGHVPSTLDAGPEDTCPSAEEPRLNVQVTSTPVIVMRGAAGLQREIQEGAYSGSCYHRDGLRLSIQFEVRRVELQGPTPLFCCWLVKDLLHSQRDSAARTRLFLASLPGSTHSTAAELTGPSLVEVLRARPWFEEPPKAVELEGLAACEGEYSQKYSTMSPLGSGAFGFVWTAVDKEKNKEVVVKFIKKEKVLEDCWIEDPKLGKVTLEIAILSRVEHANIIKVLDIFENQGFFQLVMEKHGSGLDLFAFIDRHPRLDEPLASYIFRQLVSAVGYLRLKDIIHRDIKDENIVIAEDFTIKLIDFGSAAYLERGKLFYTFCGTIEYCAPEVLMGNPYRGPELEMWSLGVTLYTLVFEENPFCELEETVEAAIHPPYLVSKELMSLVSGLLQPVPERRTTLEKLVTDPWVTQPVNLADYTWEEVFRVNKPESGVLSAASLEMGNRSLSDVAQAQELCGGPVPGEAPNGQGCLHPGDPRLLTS

Structure (SMILES) | IC50 [1] [µM] | IC50 [2] [µM] | IC50 [3] [µM]
O=c1cc(-c2ccc3c(c2)OCCO3)[nH]c2c(-c3ccccc3)c(O)nn12 | ≤ 10 | ≤ 10 | –
O=c1cc(-c2ccc(Cl)cc2)[nH]c2c(-c3cccnc3)c(O)nn12 | ≤ 10 | ≤ 10 | ≥ 10
COc1ccc(-c2cc(=O)n3nc(C)c(Cc4ccccc4)c3[nH]2)cc1OC | – | – | ≥ 10
COc1cccc(-c2cc(=O)n3nc(C)c(Cc4ccc(Cl)cc4)c3[nH]2)c1 | – | – | ≥ 10
CCCc1c(C)nn2c(=O)cc(-c3ccc(OC)cc3)[nH]c12 | ≤ 10 | ≤ 10 | ≥ 10
O=c1cc(-c2ccc(F)cc2)[nH]c2c(-c3ccccn3)c(O)nn12 | ≤ 10 | ≤ 10 | ≥ 10
O=C(NCc1ccccc1)c1cnn2c(=O)cc(-c3ccc4c(c3)OCCO4)[nH]c12 | ≤ 10 | ≤ 10 | –
CN1CCN(C(=O)c2cnn3c(=O)cc(-c4ccc5c(c4)OCCO5)[nH]c23)CC1 | ≤ 10 | ≤ 10 | –
Cc1nn2c(=O)cc(-c3ccccc3)[nH]c2c1Cc1ccc(Cl)cc1 | – | – | ≤ 10
Nc1nn2c(=O)cc(-c3ccc4c(c3)OCCO4)[nH]c2c1-c1ccccc1 | ≤ 10 | ≤ 10 | ≤ 10
O=c1cc(-c2ccc3c(c2)OCCO3)[nH]c2c(-c3ccccn3)c(O)nn12 | ≤ 10 | ≤ 10 | –
COc1ccc(-c2cc(=O)n3ncc(-c4ccccn4)c3[nH]2)c(OC)c1 | ≤ 10 | ≤ 10 | –
Cc1nn2c(=O)cc(-c3ccc(OC(C)C)cc3)[nH]c2c1Cc1ccc(Cl)cc1 | – | – | ≥ 10
Cc1nn2c(=O)cc(-c3ccc(C(F)(F)F)cc3)[nH]c2c1Cc1ccc(Cl)cc1 | – | – | ≥ 10
Cc1nn2c(=O)cc(-c3ccc4c(c3)OCO4)[nH]c2c1Cc1cccc(Cl)c1 | ≤ 10 | ≤ 10 | ≤ 10
O=c1cc(-c2ccc3c(c2)OCCO3)[nH]c2c(-c3ccccc3)c(C(F)(F)F)nn12 | ≤ 10 | ≤ 10 | ≤ 10
O=c1cc(-c2ccc(Cl)cc2)[nH]c2c(-c3ccccn3)cnn12 | ≤ 10 | ≤ 10 | –
COc1ccc(-c2cc(=O)n3nc(C)c(Cc4ccc(Cl)cc4)c3[nH]2)cc1OC | – | – | ≥ 10
O=c1cc(-c2ccc3occc3c2)[nH]c2c(-c3cccnc3)c(O)nn12 | ≤ 10 | ≤ 10 | ≤ 10
O=C(c1cnn2c(=O)cc(-c3ccc4c(c3)OCCO4)[nH]c12)N1CCOCC1 | ≤ 10 | ≤ 10 | –

Structure (SMILES) | IC50 [1] [µM] | IC50 [2] [µM] | IC50 [3] [µM]
O=c1cc(-c2ccc3c(c2)OCO3)[nH]c2c(Cc3ccccc3)cnn12 | ≤ 10 | ≤ 10 | ≤ 10
O=c1cc(-c2ccc3[nH]ncc3c2)[nH]c2c(-c3ccccn3)cnn12 | ≤ 10 | ≤ 10 | ≤ 10
COC(=O)c1ccc(-c2cc(=O)n3nc(C)c(Cc4ccc(Cl)cc4)c3[nH]2)cc1 | – | – | ≥ 10
O=c1cc(-c2ccc3occc3c2)[nH]c2c(-c3ccccc3)cnn12 | ≤ 10 | ≤ 10 | ≤ 10
COc1ccc(-c2cc(=O)n3nc(C)c(Cc4ccccc4Cl)c3[nH]2)cc1 | ≤ 10 | – | ≥ 10
Cc1nn2c(=O)cc(-c3ccc4c(c3)OCO4)[nH]c2c1Cc1ccc(Cl)cc1 | ≤ 10 | ≤ 10 | ≤ 10
Cc1nn2c(=O)cc(-c3ccc(C(N)=O)cc3)[nH]c2c1Cc1ccc(Cl)cc1 | – | – | ≥ 10
COc1ccc(-c2cc(=O)n3nc(O)c(-c4ccccn4)c3[nH]2)c(OC)c1 | ≤ 10 | ≤ 10 | ≥ 10
COc1ccc(-c2cc(=O)n3ncc(-c4cccnc4)c3[nH]2)cc1 | ≤ 10 | ≤ 10 | ≤ 10
O=c1cc(-c2ccc3c(c2)CCO3)[nH]c2c(-c3ccccn3)c(O)nn12 | ≤ 10 | ≤ 10 | ≥ 10
O=c1cc(-c2ccc3c(c2)OCO3)[nH]c2c(-c3ncccc3F)cnn12 | ≤ 10 | ≤ 10 | ≤ 10
O=c1cc(-c2ccc3occc3c2)[nH]c2c(-c3ccccn3)c(O)nn12 | ≤ 10 | ≤ 10 | ≤ 10
N#Cc1cnn2c(=O)cc(-c3ccc4c(c3)OCCO4)[nH]c12 | ≤ 10 | ≤ 10 | ≤ 10
COc1ccc2c(c1)CCc1c-2[nH]c2c(-c3ccccn3)cnn2c1=O | ≤ 10 | ≤ 10 | ≤ 10
O=c1cc(-c2ccc(Cl)cc2)[nH]c2c(-c3ccccn3)c(O)nn12 | ≤ 10 | ≤ 10 | ≥ 10
Nc1nn2c(=O)cc(-c3ccc4[nH]nnc4c3)[nH]c2c1-c1ccccn1 | ≤ 10 | ≤ 10 | ≤ 10
Cc1nn2c(=O)cc(-c3ccccc3)[nH]c2c1Cc1ccccc1 | – | – | ≥ 10
CN(Cc1ccccc1)C(=O)c1cnn2c(=O)cc(-c3ccc4c(c3)OCCO4)[nH]c12 | ≤ 10 | ≤ 10 | ≤ 10
Nc1nn2c(=O)cc(-c3ccc(Cl)cc3)[nH]c2c1-c1ccccc1 | ≤ 10 | ≤ 10 | ≤ 10

Further lines, results first:

IC50 [1] [µM] | IC50 [2] [µM] | IC50 [3] [µM] | Structure (SMILES)
≤ 10 | ≤ 10 | ≤ 10 | O=c1cc(-c2ccc3c(c2)OCCO3)[nH]c2c(-c3ccc(N4CCCC4)nc3)cnn12
≤ 10 | ≤ 10 | ≤ 10 | O=c1cc(-c2ccc(Cl)c(Cl)c2)[nH]c2c(-c3ccccn3)cnn12
– | ≤ 10 | ≤ 10 | O=c1cc(-c2ccccn2)[nH]c2c(-c3ccc(F)cc3)cnn12
≤ 10 | ≤ 10 | ≤ 10 | O=c1cc(-c2ccc3c(c2)OC(F)(F)O3)[nH]c2c(-c3ccccn3)cnn12
≤ 10 | ≤ 10 | ≤ 10 | O=c1cc(-c2ccc3cc[nH]c3c2)[nH]c2c(-c3ccccc3)cnn12
≤ 10 | ≤ 10 | ≤ 10 | O=c1cc(-c2ccc(F)cc2)[nH]c2c(-c3ccccn3)cnn12
≤ 10 | ≤ 10 | ≤ 10 | O=c1cc(-c2ccc3occc3c2)[nH]c2c(-c3ccccc3)c(O)nn12
≤ 10 | ≤ 10 | ≤ 10 | CCc1nn2c(=O)cc(-c3ccc4c(c3)OCO4)[nH]c2c1-c1ccccn1
≤ 10 | ≤ 10 | ≤ 10 | Cc1nn2c(=O)cc(-c3ccc4ncccc4c3)[nH]c2c1Cc1ccccc1
≤ 10 | ≤ 10 | ≤ 10 | O=c1cc(-c2cc3ccccc3o2)[nH]c2c(-c3ccccn3)cnn12
≤ 10 | ≤ 10 | ≤ 10 | Nc1nn2c(=O)cc(-c3ccc(Cl)cc3F)[nH]c2c1-c1ccccn1
≤ 10 | ≤ 10 | ≤ 10 | NC(=O)c1cnn2c(=O)cc(-c3ccc4c(c3)OCCO4)[nH]c12
≤ 10 | ≤ 10 | ≤ 10 | O=c1cc(-c2ccc3c(c2)CCO3)[nH]c2c(-c3ccccc3)cnn12
≤ 10 | ≤ 10 | ≤ 10 | Nc1nn2c(=O)cc(-c3ccc(Cl)cc3)[nH]c2c1-c1ccccn1
≤ 10 | ≤ 10 | ≤ 10 | O=c1cc(-c2ccc3c(c2)CCO3)[nH]c2c(-c3cccnc3)cnn12
≤ 10 | ≤ 10 | ≤ 10 | COc1cccc(-c2cnn3c(=O)cc(-c4ccc5c(c4)OCCO5)[nH]c23)c1
≤ 10 | ≤ 10 | ≤ 10 | Nc1nn2c(=O)cc(-c3ccc4c(c3)OCCO4)[nH]c2c1-c1ccccn1

IC50 [1] [µM] | IC50 [2] [µM] | IC50 [3] [µM] | Structure (SMILES)
≤ 10 | ≤ 10 | ≤ 10 | CCCNC(=O)c1cnn2c(=O)cc(-c3ccc4c(c3)OCCO4)[nH]c12
≤ 10 | ≤ 10 | ≤ 10 | Nc1nn2c(=O)cc(-c3ccc(F)cc3)[nH]c2c1-c1ccccn1
≤ 10 | ≤ 10 | ≤ 10 | O=C(NCc1ccccc1)c1cnn2c(=O)cc(-c3ccc(Cl)cc3)[nH]c12
≤ 10 | ≤ 10 | ≤ 10 | Cc1nn2c(=O)cc(-c3ccc4c(c3)OCCO4)[nH]c2c1-c1ccc(F)cc1
– | ≤ 10 | ≤ 10 | Cc1nn2c(=O)cc(-c3cccnc3)[nH]c2c1-c1ccc(F)cc1
≤ 10 | – | ≤ 10 | O=c1cc(-c2ccc3c(c2)OCCO3)[nH]c2c(-c3cccc(F)c3)cnn12
≤ 10 | ≤ 10 | ≤ 10 | COc1ccc(-c2cc(=O)n3ncc(-c4ccccn4)c3[nH]2)cc1OC
≤ 10 | – | ≤ 10 | O=c1cc(-c2ccc3c(c2)OCCO3)[nH]c2c(-c3ccc(N4CCCCC4)nc3)cnn12
≤ 10 | ≤ 10 | ≤ 10 | COc1ccccc1-c1cc(=O)n2ncc(-c3ccccn3)c2[nH]1
≤ 10 | ≤ 10 | ≤ 10 | O=c1cc(-c2ccc3c(c2)CCO3)[nH]c2c(-c3ccccn3)cnn12
≤ 10 | ≤ 10 | ≤ 10 | CC(=O)Nc1nn2c(=O)cc(-c3ccc4c(c3)OCO4)[nH]c2c1-c1ccccn1
≤ 10 | ≤ 10 | ≤ 10 | O=c1cc(-c2ccc3c(c2)OCO3)[nH]c2c(-c3cccnc3)c(O)nn12
≤ 10 | ≤ 10 | ≤ 10 | CCNc1nn2c(=O)cc(-c3ccc4c(c3)OCO4)[nH]c2c1-c1ccccn1
≤ 10 | ≤ 10 | ≤ 10 | Nc1nn2c(=O)cc(-c3ccc4c(c3)OCO4)[nH]c2c1-c1ccccn1
≤ 10 | ≤ 10 | ≤ 10 | O=c1cc(-c2ccc3c(c2)CCO3)[nH]c2c(-c3cccnc3)c(O)nn12
≤ 10 | ≤ 10 | ≤ 10 | Nc1nn2c(=O)cc(-c3ccc4[nH]ncc4c3)[nH]c2c1-c1ccccn1
